Each structure is given as a SMILES string.

The first assay concerns Staphylococcus epidermidis. As to the kind of experiment: Antimicrobial activity against methicillin-resistant Staphylococcus epidermidis ATCC 51625 after 16 hrs by broth microdilution method. The format is functional. The note with it: ATCC 51625, 16 h.
Take `CCCCCn1c(-c2ccccc2)cnc1N.Cl`: the MIC – broadly, the least concentration at which growth counts as inhibited – was 128 mg/L.

`CCCCCCCCCCCCn1c(CCCCCC)cnc1N.Cl` displayed an MIC of 1 mg/L.

With `CCCCCCCCn1c(Cc2ccccc2)cnc1N.Cl`, the MIC stood at 128 mg/L.

`CCCCCn1c(CCCCNC(=O)OCc2ccccc2)cnc1N.Cl` came in with an MIC of 64 mg/L. This MIC is about 2-fold lower than that of the compound before.

In turn, `CCCCCn1c(CC(C)C)cnc1N.Cl` yielded an MIC of 128 mg/L.

As to `CCCCCCc1cnc(N)n1Cc1ccccc1.Cl`, 16 mg/L was the least that counted as inhibitory (MIC).

On to `CCCCCCCCn1c(-c2ccccc2)cnc1N.Cl`, for which the MIC came to 64 mg/L.

Regarding `Cl.Nc1ncc(Cc2ccccc2)n1Cc1ccccc1`, the lowest concentration to inhibit growth (MIC) was 128 mg/L.

For the compound `CC(C)Cc1cnc(N)n1Cc1ccccc1.Cl`, the minimum inhibitory concentration (MIC) stood at 128 mg/L.

The compound `CCCCCCCCn1c(CCCCCC)cnc1N.Cl` came in with an MIC of 2 mg/L.

`Cl.Nc1ncc(CCCCNC(=O)OCc2ccccc2)n1CCCc1ccccc1` registered an MIC of 16 mg/L. Compared with the last compound, the MIC is about 8-fold higher.

Another assay deals with Escherichia coli. As to the kind of experiment: Antimicrobial activity against Escherichia coli ATCC 35695 after 16 hrs by broth microdilution method. The format is functional. The note with it: ATCC 35695, 16 h.
As to `CCCCCn1c(-c2ccccc2)cnc1N.Cl`, the MIC worked out at 128 mg/L.

`CCCCCCCCCCCCn1c(CCCCCC)cnc1N.Cl`: inhibition of growth (MIC) required 2 mg/L.

Turning to `CCCCCCCCn1c(Cc2ccccc2)cnc1N.Cl`, 128 mg/L was the least that counted as inhibitory (MIC).

With `CCCCCn1c(CCCCNC(=O)OCc2ccccc2)cnc1N.Cl`, the MIC came to 32 mg/L.

Take `CCCCCn1c(CC(C)C)cnc1N.Cl`: it took 64 mg/L to inhibit growth (MIC).

`CCCCCCc1cnc(N)n1Cc1ccccc1.Cl`: the MIC is 32 mg/L.

`CCCCCCCCn1c(-c2ccccc2)cnc1N.Cl` displayed an MIC of 64 mg/L.

In turn, `Cl.Nc1ncc(Cc2ccccc2)n1Cc1ccccc1` displayed an MIC of 128 mg/L.

Take `CC(C)Cc1cnc(N)n1Cc1ccccc1.Cl`: the MIC is 128 mg/L.

Compound `CCCCCCCCn1c(CCCCCC)cnc1N.Cl` came in with an MIC of 2 mg/L.

Turning to `Cl.Nc1ncc(CCCCNC(=O)OCc2ccccc2)n1CCCc1ccccc1`, the lowest concentration to inhibit growth (MIC) was 64 mg/L. This MIC is about 32-fold higher than that of the compound before.

For another assay, the system named is Staphylococcus epidermidis. As to the kind of experiment: Antimicrobial activity against Staphylococcus epidermidis ATCC 29886 after 16 hrs by broth microdilution method. The note with it: ATCC 29886, 16 h. The format is functional. On the technique in general: Broth dilution looks for growth in wells or tubes with falling amounts of substance.
In the case of `CCCCCn1c(-c2ccccc2)cnc1N.Cl`, inhibition of growth (MIC) required 16 mg/L.

`CCCCCCCCCCCCn1c(CCCCCC)cnc1N.Cl`: the MIC turned out to be 0.5 mg/L.

For `CCCCCCCCn1c(Cc2ccccc2)cnc1N.Cl`, the MIC amounted to 128 mg/L.

Compound `CCCCCn1c(CCCCNC(=O)OCc2ccccc2)cnc1N.Cl` had an MIC of 16 mg/L.

Consider `CCCCCn1c(CC(C)C)cnc1N.Cl`, for which the MIC came to 32 mg/L. This MIC lies about 2-fold higher than the previous one.

In the case of `CCCCCCc1cnc(N)n1Cc1ccccc1.Cl`, the MIC is 16 mg/L.

`CCCCCCCCn1c(-c2ccccc2)cnc1N.Cl`: the MIC came to 16 mg/L.

As to `Cl.Nc1ncc(Cc2ccccc2)n1Cc1ccccc1`, it took 128 mg/L to inhibit growth (MIC).

Regarding `CC(C)Cc1cnc(N)n1Cc1ccccc1.Cl`, the MIC was determined as 16 mg/L.

Turning to `CCCCCCCCn1c(CCCCCC)cnc1N.Cl`, the MIC amounted to 0.125 mg/L.

As for `Cl.Nc1ncc(CCCCNC(=O)OCc2ccccc2)n1CCCc1ccccc1`, the MIC came out at 16 mg/L.

For a further assay, the system named is Staphylococcus aureus. The assay can be described thus: Antimicrobial activity against methicillin-susceptible Staphylococcus aureus ATCC 29213 after 16 hrs by broth microdilution method. Type of assay: functional. The note with it: ATCC 29213, 16 h.
Regarding `CCCCCn1c(-c2ccccc2)cnc1N.Cl`, the MIC amounted to 64 mg/L.

As to `CCCCCCCCCCCCn1c(CCCCCC)cnc1N.Cl`, the MIC was determined as 2 mg/L.

For `CCCCCCCCn1c(Cc2ccccc2)cnc1N.Cl`, the MIC was determined as 128 mg/L.

As to `CCCCCn1c(CCCCNC(=O)OCc2ccccc2)cnc1N.Cl`, the MIC stood at 32 mg/L.

`CCCCCn1c(CC(C)C)cnc1N.Cl`: the MIC is greater than 128 mg/L.

Compound `CCCCCCc1cnc(N)n1Cc1ccccc1.Cl` came in with an MIC of 16 mg/L.

`CCCCCCCCn1c(-c2ccccc2)cnc1N.Cl` yielded a minimal inhibitory concentration (MIC) of 64 mg/L.

`Cl.Nc1ncc(Cc2ccccc2)n1Cc1ccccc1` registered an MIC greater than 128 mg/L.

With `CC(C)Cc1cnc(N)n1Cc1ccccc1.Cl`, the MIC amounted to 128 mg/L.

`CCCCCCCCn1c(CCCCCC)cnc1N.Cl` gave an MIC of 2 mg/L.

Compound `Cl.Nc1ncc(CCCCNC(=O)OCc2ccccc2)n1CCCc1ccccc1` gave an MIC of 16 mg/L.

The subject of a further assay is Acinetobacter baumannii. The assay can be described thus: Antimicrobial activity against Acinetobacter baumannii ATCC 19606 after 16 hrs by broth microdilution method. Type of assay: functional. The note with it: ATCC 19606 = CIP 70.34 = JCM 6841, 16 h.
Regarding `CCCCCn1c(-c2ccccc2)cnc1N.Cl`, the MIC stood at 64 mg/L.

`CCCCCCCCCCCCn1c(CCCCCC)cnc1N.Cl` gave an MIC of 64 mg/L.

With `CCCCCCCCn1c(Cc2ccccc2)cnc1N.Cl`, the MIC was found to be 128 mg/L.

The compound `CCCCCn1c(CCCCNC(=O)OCc2ccccc2)cnc1N.Cl` gave a minimal inhibitory concentration (MIC) of 128 mg/L.

For the compound `CCCCCn1c(CC(C)C)cnc1N.Cl`, the MIC was found to be 64 mg/L.

For the compound `CCCCCCc1cnc(N)n1Cc1ccccc1.Cl`, the MIC came to 16 mg/L.

`CCCCCCCCn1c(-c2ccccc2)cnc1N.Cl` returned an MIC of 16 mg/L.

`Cl.Nc1ncc(Cc2ccccc2)n1Cc1ccccc1` registered an MIC greater than 128 mg/L.

`CC(C)Cc1cnc(N)n1Cc1ccccc1.Cl` displayed a minimum inhibitory concentration (MIC) of 128 mg/L.

As to `CCCCCCCCn1c(CCCCCC)cnc1N.Cl`, the lowest concentration to inhibit growth (MIC) was 8 mg/L. Against the preceding compound, the MIC is about 16-fold lower.

On to `Cl.Nc1ncc(CCCCNC(=O)OCc2ccccc2)n1CCCc1ccccc1`, for which it took 32 mg/L to inhibit growth (MIC). This MIC lies about 4-fold higher than the previous one.

The test system of another assay is Klebsiella pneumoniae. As to the kind of experiment: Antimicrobial activity against carbapenem-resistant Klebsiella pneumoniae BAA-2146 expressing […] gene after 16 hrs by broth microdilution method. Type of assay: functional. The note with it: BAA-2146, 16 h.
Regarding `CCCCCn1c(-c2ccccc2)cnc1N.Cl`, the MIC is greater than 128 mg/L.

`CCCCCCCCCCCCn1c(CCCCCC)cnc1N.Cl` showed an MIC greater than 128 mg/L.

For `CCCCCCCCn1c(Cc2ccccc2)cnc1N.Cl`, the MIC is greater than 128 mg/L.

In turn, `CCCCCn1c(CCCCNC(=O)OCc2ccccc2)cnc1N.Cl` registered an MIC greater than 128 mg/L.

`CCCCCn1c(CC(C)C)cnc1N.Cl` yielded an MIC of 128 mg/L.

As to `CCCCCCc1cnc(N)n1Cc1ccccc1.Cl`, the MIC is 64 mg/L.

In turn, `CCCCCCCCn1c(-c2ccccc2)cnc1N.Cl` registered an MIC of 128 mg/L.

`Cl.Nc1ncc(Cc2ccccc2)n1Cc1ccccc1` registered an MIC greater than 128 mg/L.

For the compound `CC(C)Cc1cnc(N)n1Cc1ccccc1.Cl`, the lowest concentration to inhibit growth (MIC) was 128 mg/L.

On to `CCCCCCCCn1c(CCCCCC)cnc1N.Cl`, for which the minimum inhibitory concentration (MIC) is 32 mg/L.

Regarding `Cl.Nc1ncc(CCCCNC(=O)OCc2ccccc2)n1CCCc1ccccc1`, the lowest concentration to inhibit growth (MIC) was 128 mg/L.

The subject of a further assay is Staphylococcus aureus. As to the kind of experiment: Antimicrobial activity against methicillin-resistant Staphylococcus aureus BAA-44 after 16 hrs by broth microdilution method. The note with it: BAA-44, 16 h. The format is functional.
For the compound `CCCCCn1c(-c2ccccc2)cnc1N.Cl`, the MIC turned out to be 64 mg/L.

The compound `CCCCCCCCCCCCn1c(CCCCCC)cnc1N.Cl` came in with an MIC of 2 mg/L.

`CCCCCCCCn1c(Cc2ccccc2)cnc1N.Cl`: the minimal inhibitory concentration (MIC) is 128 mg/L.

Consider `CCCCCn1c(CCCCNC(=O)OCc2ccccc2)cnc1N.Cl`, for which the MIC was found to be 128 mg/L.

For the compound `CCCCCn1c(CC(C)C)cnc1N.Cl`, the MIC was determined as 128 mg/L.

In turn, `CCCCCCc1cnc(N)n1Cc1ccccc1.Cl` displayed an MIC of 32 mg/L.

The compound `CCCCCCCCn1c(-c2ccccc2)cnc1N.Cl` came in with an MIC of 64 mg/L.

In the case of `Cl.Nc1ncc(Cc2ccccc2)n1Cc1ccccc1`, the MIC is greater than 128 mg/L.

Compound `CC(C)Cc1cnc(N)n1Cc1ccccc1.Cl` displayed an MIC of 128 mg/L.

`CCCCCCCCn1c(CCCCCC)cnc1N.Cl` displayed an MIC of 2 mg/L.

On to `Cl.Nc1ncc(CCCCNC(=O)OCc2ccccc2)n1CCCc1ccccc1`, for which inhibition of growth (MIC) required 16 mg/L.

The test system of a further assay is Acinetobacter baumannii. The assay can be described thus: Antimicrobial activity against multidrug-resistant Acinetobacter baumannii BAA-1605 after 16 hrs by broth microdilution method. Type of assay: functional. The note with it: BAA-1605, 16 h.
In the case of `CCCCCn1c(-c2ccccc2)cnc1N.Cl`, the MIC is 64 mg/L.

As to `CCCCCCCCCCCCn1c(CCCCCC)cnc1N.Cl`, the MIC was greater than 128 mg/L.

For `CCCCCCCCn1c(Cc2ccccc2)cnc1N.Cl`, 128 mg/L was the least that counted as inhibitory (MIC).

Take `CCCCCn1c(CCCCNC(=O)OCc2ccccc2)cnc1N.Cl`: it took 128 mg/L to inhibit growth (MIC).

For the compound `CCCCCn1c(CC(C)C)cnc1N.Cl`, 64 mg/L was the least that counted as inhibitory (MIC).

`CCCCCCc1cnc(N)n1Cc1ccccc1.Cl` registered an MIC of 16 mg/L.

The compound `CCCCCCCCn1c(-c2ccccc2)cnc1N.Cl` registered an MIC of 64 mg/L. This MIC lies about 4-fold higher than the previous one.

Regarding `Cl.Nc1ncc(Cc2ccccc2)n1Cc1ccccc1`, the MIC was greater than 128 mg/L.

Regarding `CC(C)Cc1cnc(N)n1Cc1ccccc1.Cl`, the MIC is 128 mg/L.

For `CCCCCCCCn1c(CCCCCC)cnc1N.Cl`, the MIC is 8 mg/L.

Compound `Cl.Nc1ncc(CCCCNC(=O)OCc2ccccc2)n1CCCc1ccccc1` displayed an MIC of 32 mg/L.

For the origin of these results see ChEMBL document CHEMBL1806468, “A facile synthesis of 1,5-disubstituted-2-aminoimidazoles: antibiotic activity of a first generation library” (2011).
